Results from US6713486B1, “Antiviral 2,4-pyrimidinedione derivatives and process for the preparation thereof” (Korea Research Institute of Chemical Technology, priority 1999, dated 2004).
Where two headings read alike, the source gives them in different places.

What was measured:
[1] = test system: HIV-1; conditions: for ED50: Effective concentration for the inhibition of the proliferation of HIV-1 by 50%: HIV-1 infected MT-4 cells, MTT; for S.I. Selectivity index (CD50/ED50): CD50/ED50, MT-4 cells
Description: First, MT-4 cells were suspended in a culture medium at a concentration of 1×10^4 cells/ml and infected with 500 TCID50 (50% cell culture infective dose)/well of HIV-1.

[2] = test system: MT-4 cells; conditions: mock-infected MT-4 cells, MTT
[3] = test system: Y181C HIV-1 mutant; conditions: read-out: EC50: Effective concentration for the inhibition of the proliferation of mutant HIV-1 by 50%; Y181C mutant HIV-1; Reference: J. Med. Chem., 42, 4500 (1999); cited from earlier work
[4] = test system: Y181C HIV-1 mutant; assay: Antiviral activity against mutant HIV-1 (Y181C) by the MTT method; type: cell-based; conditions: read-out: EC50: Effective concentration for the inhibition of the proliferation of mutant HIV-1 by 50%; Y181C mutant HIV-1, MTT
Description: Antiviral activities of the inventive compounds were determined against Y181C which is representative HIV-1 mutant having high resistance against anti-HIV-1 nonnucleosides, e.g., Nevirapine, by the MTT method. MKC-442 was employed as a comparative compound.

With Cc1cc(C)cc(C(=O)c2c(C(C)C)c(=O)[nH]c(=O)n2Cc2cc(F)cc(F)c2)c1 [Compound 43] the “ED50: Effective concentration for the inhibition of the proliferation of HIV-1 by 50%” value [1] was 3.5 ng/mL and the “CD50: Cytotoxic concentration that causes death of MT-4 cells by 50%” value (“CD50 … by 50%” for short) [2] was 7.16 µg/mL.

With Cc1cc(C)cc(C(=O)c2c(C(C)C)c(=O)[nH]c(=O)n2Cc2ccncc2CO)c1 [Compound 75, 1-(3′-Hydroxymethyl-4′-picolyl)-5-isopropyl-6-(3′,5′-dimethylbenzoyl)-2,4-pyrimidinedione] the “ED50: Effective concentration for the inhibition of the proliferation of HIV-1 by 50%” value [1] was 3.1 ng/mL and the “CD50 … by 50%” value [2] was 42.06 µg/mL.

For Cc1cc(Cl)cc(Cn2c(C(=O)c3cc(C)cc(C)c3)c(C(C)C)c(=O)[nH]c2=O)c1 [Compound 40], the “ED50: Effective concentration for the inhibition of the proliferation of HIV-1 by 50%” value [1] was 34.8 ng/mL and the “CD50 … by 50%” value [2] was 7.97 µg/mL.

In the case of Cc1cc(C)cc(C(=O)c2c(C(C)C)c(=O)[nH]c(=O)n2Cc2ccccn2)c1 [Compound 3, 1-(2′-Picolyl)-5-isopropyl-6-(3′, 5′-dimethylbenzoyl)-2,4-pyrimidinedione], the “ED50: Effective concentration for the inhibition of the proliferation of HIV-1 by 50%” value [1] is reported as 5.5 ng/mL and the “CD50 … by 50%” value [2] is reported as 26.1 µg/mL.

In the case of CC(=O)OCc1cnccc1Cn1c(C(=O)c2cc(C)cc(C)c2)c(C(C)C)c(=O)[nH]c1=O [Compound 72, 1-(3′-Acetoxymethyl-4′-picolyl)-5-Isopropyl-6-(3′,5′-dimethylbenzoyl)-2,4-pyrimidinedione], the “ED50: Effective concentration for the inhibition of the proliferation of HIV-1 by 50%” value [1] is reported as 8.8 ng/mL and the “CD50 … by 50%” value [2] is reported as 38.49 µg/mL.

For CC(=O)OCc1cncc(C)c1Cn1c(C(=O)c2cc(C)cc(C)c2)c(C(C)C)c(=O)[nH]c1=O [Compound 73, 1-(3′-Acetoxymethyl-5′-methyl-4′-picolyl)-5-isopropyl-6-(3′,5′-dimethylbenzoyl)-2,4-pyrimidinedione], the “ED50: Effective concentration for the inhibition of the proliferation of HIV-1 by 50%” value [1] was 6.7 ng/mL and the “CD50 … by 50%” value [2] was 39.65 µg/mL.

In the case of Cc1cc(Cl)cc(C(=O)c2c(C(C)C)c(=O)[nH]c(=O)n2Cc2ccncc2C(N)=O)c1 [Compound 80, 1-(3′-Carbamoyl-4′-picolyl)-5-isopropyl-6-(3′-chloro-5′-methylbenzoyl)-2,4-pyrimidinedione], the “ED50: Effective concentration for the inhibition of the proliferation of HIV-1 by 50%” value [1] is reported as 11.1 ng/mL and the “CD50 … by 50%” value [2] is reported as 27.83 µg/mL.

With Cc1cc(C)cc(C(=O)c2c(C(C)C)c(=O)[nH]c(=O)n2Cc2cc[n+]([O-])cc2)c1 [Compound 68, 1-(N-oxo-4′-Picolyl)-5-isopropyl-6-(3′,5′-dimethylbenzoyl)-2,4-pyrimidinedione] the “ED50: Effective concentration for the inhibition of the proliferation of HIV-1 by 50%” value [1] was 14.5 ng/mL and the “CD50 … by 50%” value [2] was 56.9 µg/mL.

With Cc1cc(C)cc(C(=O)c2c(C(C)C)c(=O)[nH]c(=O)n2Cc2ccc(N)cc2)c1 [Compound 81, 1-(4′-Aminobenzyl)-5-isopropyl-6-(3′,5′-dimethylbenzoyl)-2,4-pyrimidinedione] the “S.I. Selectivity index (CD50/ED50)” value [1] was 648, the “ED50: Effective concentration for the inhibition of the proliferation of HIV-1 by 50%” value [1] was 15 ng/mL and the “CD50 … by 50%” value [2] was 9.63 µg/mL.

For Cc1cc(C)cc(C(=O)c2c(C(C)C)c(=O)[nH]c(=O)n2Cc2c(C)c[n+]([O-])cc2C)c1 [Compound 70, 1-(N-oxo-3′, 5-Dimethyl-4′-picolyl)-5-Isopropyl-6-(3′, 5′-dimethylbenzoyl)-2,4-Pyrimidinedione], the “ED50: Effective concentration for the inhibition of the proliferation of HIV-1 by 50%” value [1] was 5.5 ng/mL and the “CD50 … by 50%” value [2] was 25.84 µg/mL.

In the case of Cc1cc(C)cc(C(=O)c2c(C(C)C)c(=O)[nH]c(=O)n2Cc2cc(C(F)(F)F)cc(C(F)(F)F)c2)c1 [Compound 44], the “ED50: Effective concentration for the inhibition of the proliferation of HIV-1 by 50%” value [1] is reported as 1800 ng/mL and the “CD50 … by 50%” value [2] is reported as 8.17 µg/mL.

In the case of CCOCn1c(Cc2ccccc2)c(C(C)C)c(=O)[nH]c1=O [MKC-442, 6-benzyl-1-ethoxymethyl-5-isopropyluracil, reference compound], the “S.I. Selectivity index (CD50/ED50)” value [1] is given as 5,544, the “ED50: Effective concentration for the inhibition of the proliferation of HIV-1 by 50%” value [1] is given as 5 ng/mL and the EC50 [3] is given as 13.4 µM.

With Cc1cc(Cl)cc(C(=O)c2c(C(C)C)c(=O)[nH]c(=O)n2Cc2c(C)cncc2CO)c1 [Compound 77, 1-(3′-Hydroxymethyl-5′-methyl-4′-picolyl)-5-isopropyl-6-(3′-chloro-5′-methylbenzoyl)-2,4-pyrimidinedione] the “ED50: Effective concentration for the inhibition of the proliferation of HIV-1 by 50%” value [1] was 11.5 ng/mL and the “CD50 … by 50%” value [2] was 23.51 µg/mL.

In the case of Cc1cc(C)cc(C(=O)c2c(C(C)C)c(=O)[nH]c(=O)n2Cc2c(C)cncc2CO)c1 [Compound 76, 1-(3′-Hydroxymethyl-5′-methyl-4′-picolyl)-5-isopropyl-6-(3′, 5′-dimethylbenzoyl)-2,4-pyrimidinedione], the “ED50: Effective concentration for the inhibition of the proliferation of HIV-1 by 50%” value [1] is reported as 8.4 ng/mL and the “CD50 … by 50%” value [2] is reported as 38.39 µg/mL.

In the case of Cc1cc(C)cc(C(=O)c2c(C(C)C)c(=O)[nH]c(=O)n2Cc2ccncc2C(N)=O)c1 [Compound 79, 1-(3′-Carbamoyl-4′-picolyl)-5-isopropyl-6-(3′,5′-dimethylbenzoyl)-2,4-pyrimidinedione], the “ED50: Effective concentration for the inhibition of the proliferation of HIV-1 by 50%” value [1] is reported as 9.1 ng/mL and the “CD50 … by 50%” value [2] is reported as greater than 100 µg/mL.

For Cc1cc(C)cc(C(=O)c2c(C(C)C)c(=O)[nH]c(=O)n2Cc2ccncc2)c1 [Compound 1, 1-(4′-Picolyl)-5-isopropyl-6-(3′,5′-dimethylbenzoyl)-2,4-pyrimidinedione], the EC50 [4] was 0.005 to 0.014 µM, the “ED50: Effective concentration for the inhibition of the proliferation of HIV-1 by 50%” value [1] was 2.6 ng/mL and the “CD50 … by 50%” value [2] was 22.6 µg/mL.

For Cc1cc(Cl)cc(C(=O)c2c(C(C)C)c(=O)[nH]c(=O)n2Cc2c(C)c[n+]([O-])cc2C)c1 [Compound 71, 1-(N-oxo-3′,5′-Dimethyl-4′-picolyl)-5-isopropyl-6-(3′,-chloro-5-methylbenzoyl)-2,4-pyrimidinedione], the “ED50: Effective concentration for the inhibition of the proliferation of HIV-1 by 50%” value [1] was 8.2 ng/mL and the “CD50 … by 50%” value [2] was 25.44 µg/mL.

In the case of COC(=O)c1cnccc1Cn1c(C(=O)c2cc(C)cc(C)c2)c(C(C)C)c(=O)[nH]c1=O [Compound 78, 1-(3′-Methoxycarbonyl-4′-picolyl)-5-isopropyl-6-(31,51-dimethylbenzoyl)-2,4-pyrimidinedione], the “ED50: Effective concentration for the inhibition of the proliferation of HIV-1 by 50%” value [1] is reported as 7.5 ng/mL and the “CD50 … by 50%” value [2] is reported as 40.79 µg/mL.

In the case of Cc1cc(C)cc(C(=O)c2c(C(C)C)c(=O)[nH]c(=O)n2Cc2cccnc2)c1 [Compound 2, 1-(3′-Picolyl)-5-isopropyl-6-(3′, 5′-dimethylbenzoyl)-2,4-pyrimidinedione], the “ED50: Effective concentration for the inhibition of the proliferation of HIV-1 by 50%” value [1] is reported as 3.6 ng/mL and the “CD50 … by 50%” value [2] is reported as 27.2 µg/mL.

With Cc1cc(C)cc(C(=O)c2c(C(C)C)c(=O)[nH]c(=O)n2Cc2cc[n+]([O-])cc2C)c1 [Compound 69, 1-(N-oxo-3′-Methyl-4′-picolyl)-5-isopropyl-6-(3′, 5′-dimethylbenzoyl)-2,4-pyrimidinedione] the “ED50: Effective concentration for the inhibition of the proliferation of HIV-1 by 50%” value [1] was 12.5 ng/mL and the “CD50 … by 50%” value [2] was 48.25 µg/mL.

With Cc1cc(C)cc(Nc2c(C(C)C)c(=O)[nH]c(=O)n2Cc2ccncc2)c1 [Compound 66, 1-(4′-Picolyl)-5-isopropyl-6-(3′, 5′-dimethylphenylamino)-2,4-pyrimidinedione] the “ED50: Effective concentration for the inhibition of the proliferation of HIV-1 by 50%” value [1] was 80 ng/mL and the “CD50 … by 50%” value [2] was greater than 100 µg/mL.

In the case of CCc1c(Nc2cc(C)cc(C)c2)n(Cc2ccncc2)c(=O)[nH]c1=O [Compound 67, 1-(4′-Picolyl)-5-ethyl-6-(3′, 5′-dimethylphenylamino)-2,4-pyrimidinedione], the “ED50: Effective concentration for the inhibition of the proliferation of HIV-1 by 50%” value [1] is reported as 420 ng/mL and the “CD50 … by 50%” value [2] is reported as 54.5 µg/mL.
